Data on four compounds can be found in ChEMBL document CHEMBL6087478, “Chain Length Does Matter: Development of High-Potency QS-21-Based Vaccine Adjuvants” (J Med Chem, 2025).

Calls of active or inactive are those of the source. No cut-off for these calls is given here.

Series [1] has as its system Mus musculus. In words: Adjuvant activity in OVA-immunized female C57BL/6 mouse assessed as increase IgG antibody titer at 20 ug, sc co-administered with OVA antigen on day 0,7 and 14 and measured on day 14,28,42 by ELISA method. Conditions: dose 20.0 µg, time 42.0 day. It counts as functional, organism-based. (In general: ELISA stands for enzyme-linked immunosorbent assay.)

In series [2] the test system is Mus musculus. In words: Adjuvant activity in OVA-immunized female C57BL/6 mouse assessed as increase IgG2b antibody titer at 20 ug, sc co-administered with OVA antigen on day 0,7 and 14 and measured on day 14,28,42 by ELISA method. The class given is functional, organism-based. Conditions: dose 20.0 µg, time 42.0 day.
Series [3] concerns Mus musculus. Nature of the series: Adjuvant activity in OVA-immunized female C57BL/6 mouse assessed as increase in IgG antibody titer at 50 ug, IM co-administered with OVA antigen on day 0,7 and 14 and measured on day 14,28,42 by ELISA method. The class given is functional, organism-based. Conditions: dose 50.0 µg, time 42.0 day.
Series [4] has as its system Mus musculus. In words: Adjuvant activity in OVA-immunized female C57BL/6 mouse assessed as induction of antigen-specific Th1 immune responses by measuring increase in anti-OVA specific IgG2b in serum at 50 ug, IM co-administered with OVA antigen on day 0,7 and 14 and measured on day 21 by ELISA method. It counts as functional, organism-based. Conditions: dose 50.0 µg, time 21.0 day.

In series [5] the test system is Mus musculus. In words: Adjuvant activity in KLH-immunized female C57BL/6 mouse assessed as increase in serum IgG anti-KLH antibody titer at 50 ug, IM co-administered with KLH-antigen on day 0,7 and 14 and measured on day 14,28 and 42 by ELISA method. It counts as functional, organism-based. The settings on record: dose 50.0 µg, time 42.0 day.
Series [6] deals with Mus musculus. Nature of the series: Adjuvant activity in OVA-immunized female C57BL/6 mouse assessed as induction of antigen-specific Th1 immune responses by measuring increase in anti-OVA specific IgG1 in serum at 50 ug, IM co-administered with OVA antigen on day 0,7 and 14 and measured on day 21 by ELISA method. Conditions: dose 50.0 µg, time 21.0 day. It counts as functional, organism-based.

Series [7] is described as follows: Toxicity in C57BL/6 mouse assessed as effect on body weight change at 50 ug, sc in presence of OVA-antigen measured upto 7 days. The class given is organism-based. The settings on record: in vivo, 168 h, dose 50 µg, time < 7 day.
Series [8] concerns Mus musculus. Nature of the series: Adjuvant activity in OVA-immunized female C57BL/6 mouse assessed as increase in serum IgG anti-OVA antibody response at 50 ug, IM co-administered with OVA antigen on day 0,7 and 14 and measured on day 21 by ELISA method. The class given is functional, organism-based. The settings on record: dose 50.0 µg, time 21.0 day.
The test system of series [9] is Mus musculus. In words: Adjuvant activity in OVA-immunized female C57BL/6 mouse assessed as increase IgG2b antibody titer at 50 ug, sc co-administered with OVA antigen on day 0,7 and 14 and measured on day 14,28,42 by ELISA method. It counts as functional, organism-based. Conditions: dose 50.0 µg, time 42.0 day.
The subject of series [10] is Mus musculus. In words: Adjuvant activity in OVA-immunized female C57BL/6 mouse assessed as increase IgG antibody titer at 50 ug, sc co-administered with OVA antigen on day 0,7 and 14 and measured on day 14,28,42 by ELISA method. It counts as functional, organism-based. Conditions: dose 50.0 µg, time 42.0 day.
The test system of series [11] is Mus musculus. In words: Adjuvant activity in OVA-immunized female C57BL/6 mouse assessed as induction of antigen-specific Th2 immune responses by measuring increase in anti-OVA specific IgG1 in serum at 50 ug, IM co-administered with OVA antigen on day 0,7 and 14 and measured on day 21 by ELISA method. The settings on record: dose 50.0 µg, time 21.0 day. It counts as functional, organism-based.

In series [12] the test system is Mus musculus. In words: Adjuvant activity in OVA-immunized female C57BL/6 mouse assessed as induction of antigen-specific Th2 immune responses by measuring increase in anti-OVA specific IgG2b in serum at 50 ug, IM co-administered with OVA antigen on day 0,7 and 14 and measured on day 21 by ELISA method. Conditions: dose 50.0 µg, time 21.0 day. The class given is functional, organism-based.

Series [13] can be described thus: Toxicity in C57BL/6 mouse assessed as effect on body weight change at 50 ug, IM in presence of OVA-antigen measured upto 7 days. The settings on record: in vivo, 168 h, dose 50 µg, time < 7 day.
Series [14] deals with Mus musculus. Nature of the series: Adjuvant activity in OVA-immunized female C57BL/6 mouse assessed as increase in IgG2b antibody titer at 50 ug, IM co-administered with OVA antigen on day 0,7 and 14 and measured on day 14,28,42 by ELISA method. It counts as functional, organism-based. The settings on record: dose 50.0 µg, time 42.0 day.
Series [15] in a line: Toxicity in C57BL/6 mouse assessed as effect on body weight change at 50 ug, IM in presence of KLH measured upto 7 days. The settings on record: in vivo, 168 h, dose 50 µg, time < 7 day.
Series [16] relates to Mus musculus. In words: Adjuvant activity in OVA-immunized female C57BL/6 mouse assessed as increase in IgG antibody titer at low dose administered as IM co-administered with OVA antigen on day 0,7 and 14 and measured on day 14,28,42 by ELISA method. It counts as functional, organism-based. Conditions: time 42.0 day.
Series [17] concerns Mus musculus. Nature of the series: Potency index ratio of QS21 to test compound for adjuvant activity in KLH-immunized female C57BL/6 mouse assessed as increase in serum IgG anti-KLH antibody titer at 50 ug, IM co-administered with KLH-antigen on day 0,7 and 14 and measured on day 14,28 and 42 by ELISA method. The class given is functional. The settings on record: dose 50 µg, time 42 day.

The subject of series [18] is Mus musculus. Nature of the series: Adjuvant activity in OVA-immunized female C57BL/6 mouse assessed as increase in serum IgG anti-OVA antibody response at 5 ug, IM co-administered with OVA antigen on day 0,7 and 14 and measured on day 14,28 and 42 by ELISA method. Conditions: dose 5.0 µg, time 42.0 day. It counts as functional, organism-based.
Series [19] deals with Mus musculus. Nature of the series: Adjuvant activity in OVA-immunized female C57BL/6 mouse assessed as increase in IgG2b antibody titer at low dose administered as IM co-administered with OVA antigen on day 0,7 and 14 and measured on day 14,28,42 by ELISA method. Conditions: time 42.0 day. The class given is functional, organism-based.
Series [20] deals with Mus musculus. Nature of the series: Adjuvant activity in OVA-immunized female C57BL/6 mouse assessed as increase in serum IgG1 at low dose administered as IM dose co-administered with OVA antigen on day 0,7 and 14 and measured on day 14,28 and 42 by ELISA method. The class given is functional, organism-based. The settings on record: time 42.0 day.
The test system of series [21] is Mus musculus. In words: Adjuvant activity in OVA-immunized female C57BL/6 mouse assessed as increase in serum IgG2b at low dose administered as IM dose co-administered with OVA antigen on day 0,7 and 14 and measured on day 14,28 and 42 by ELISA method. The class given is functional, organism-based. The settings on record: time 42.0 day.
Series [22] can be described thus: Toxicity in C57BL/6 mouse assessed as effect on body weight change at 20 ug, sc in presence of OVA-antigen measured upto 7 days. It counts as organism-based. Conditions: in vivo, 168 h, dose 20 µg, time < 7 day.

Take `CC1(C)CC[C@]2(C(=O)O[C@@H]3O[C@H](CO)[C@@H](O)[C@H](O[C@@H]4O[C@H](CO)[C@@H](O)[C@H](O[C@@H]5O[C@H](CO)[C@@H](O)[C@H](O[C@@H]6O[C@H](CO)[C@@H](O)[C@H](O[C@@H]7O[C@H](CO)[C@@H](O)[C@H](O)[C@H]7O)[C@H]6O)[C@H]5O)[C@H]4O)[C@H]3O)[C@H](O)C[C@]3(C)C(=CC[C@@H]4[C@@]5(C)CC[C@H](O[C@@H]6O[C@H](CO)[C@@H](O)[C@H](O[C@@H]7O[C@H](CO)[C@@H](O)[C@H](O[C@@H]8O[C@H](CO)[C@@H](O)[C@H](O)[C@H]8O)[C@H]7O)[C@H]6O)[C@@](C)(C=O)[C@@H]5CC[C@]43C)[C@@H]2C1`: the outcome with Mus musculus [1] and in the series on Mus musculus [2] was Active.
Take `C[C@@H]1O[C@@H](O[C@H]2[C@H](OC(=O)[C@]34CCC(C)(C)C[C@H]3C3=CC[C@@H]5[C@@]6(C)CC[C@H](O)[C@@](C)(C=O)[C@@H]6CC[C@@]5(C)[C@]3(C)CC4)O[C@H](CO)[C@H](NC(=O)CCCCCCCCCCCCC(=O)O)[C@@H]2O)[C@H](O)[C@H](O)[C@H]1O[C@@H]1OC[C@@H](O)[C@H](O)[C@H]1O`: the result in the series with Mus musculus [3], with Mus musculus [4], with Mus musculus [5], in the series on Mus musculus [6], in the series with Mus musculus [8] and with Mus musculus [9] was Active. The result with Mus musculus [10], with Mus musculus [11], in the series on Mus musculus [12] and in the series on Mus musculus [14] was Active. The Activity entry in series [7], in series [13] and in series [15] was “Non-toxic” throughout.
Turning to `C[C@@H]1O[C@@H](O[C@H]2[C@H](OC(=O)[C@]34CCC(C)(C)C[C@H]3C3=CC[C@@H]5[C@@]6(C)CC[C@H](O)[C@@](C)(C=O)[C@@H]6CC[C@@]5(C)[C@]3(C)CC4)O[C@H](CO)[C@H](NC(=O)CCCCCCCCCCC(=O)O)[C@@H]2O)[C@H](O)[C@H](O)[C@H]1O[C@@H]1OC[C@@H](O)[C@H](O)[C@H]1O`, the Activity result in series [7] is “Non-toxic”. Also, the result in the series with Mus musculus [9] and in the series with Mus musculus [10] was Active.
Turning to `C[C@@H]1O[C@@H](O[C@H]2[C@H](OC(=O)[C@]34CCC(C)(C)C[C@H]3C3=CC[C@@H]5[C@@]6(C)CC[C@H](O)[C@@](C)(C=O)[C@@H]6CC[C@@]5(C)[C@]3(C)CC4)O[C@H](CO)[C@H](NC(=O)CCCCCCCCCCCCCCC(=O)O)[C@@H]2O)[C@H](O)[C@H](O)[C@H]1O[C@@H]1OC[C@@H](O)[C@H](O)[C@H]1O`, the result in the series on Mus musculus [4], with Mus musculus [1], with Mus musculus [16], in the series with Mus musculus [18], in the series with Mus musculus [19] and with Mus musculus [20] was Active. The outcome with Mus musculus [6], in the series on Mus musculus [21], with Mus musculus [8], in the series on Mus musculus [11], in the series on Mus musculus [12] and with Mus musculus [2] was Active. Moreover, in the series with Mus musculus [17], the “fold change (FC)” value came out at 10. Also, the Activity result in series [22], in series [13] and in [15] was “Non-toxic” throughout.
